Measured values from US20210129406A1, “DRUG SOLVATES IN THERMAL PROCESSES TO MAKE SOLID DISPERSIONS AT LOWER PROCESSING TEMPERATURES” (BOARD OF REGENTS, THE UNIVERSITY OF TEXAS SYSTEM, priority 2019, published 2021).

Tests used:
[1] = cited from earlier work
[2] = Solid-state stability of carbamazepine dihydrate (PXRD) at room temperature, 56% relative humidity; assay type: physicochemical
Protocol: CBZ dihydrate was prepared by suspending CBZ anhydrate in water for 24 hours.

Row | stability of the dihydrate form ([2]; 56% relative humidity at room temperature throughout the whole experiments) | stability of the dihydrate form (PXRD) ([2]; 3 days at room temperature 56% relative humidity) | Structure (SMILES) | pKa [1]
1 | – | – | NC(=O)N1c2ccccc2C=Cc2ccccc21 [carbamazepine] | 13.4
2 | stayed stable | stayed stable | NC(=O)N1c2ccccc2C=Cc2ccccc21 [carbamazepine dihydrate] | –
